Test results as given in US9249178B2, “Tricyclic nucleosides and oligomeric compounds prepared therefrom” (UNIVERSITÄT BERN, priority 2012, dated 2016).

Key:
complementary RNA = experiment: Tm study of 10mer oligomeric compounds duplexed to RNA; type: binding; settings: 150 mM NaCl, 10 mM phosphate, 0.1 mM EDTA, pH 7; for ΔTm/mod (° C.) vs RNA: duplex with complementary RNA, compared to unmodified 10mer A01
Procedure: (§1) The relative ability of a chemically-modified oligomeric compound to bind to complementary nucleic acid strands, as compared to natural oligonucleotides, is measured by obtaining the melting temperature of a hybridization complex of said chemically-modified oligomeric compound with its complementary unmodified target nucleic acid. The melting temperature (Tm), a characteristic physical property of double helixes, denotes the temperature in degrees centigrade at which 50% helical versus coiled (unhybridized) forms are present. Tm (also commonly referred to as binding affinity) is measured by using the UV spectrum to determine the formation and breakdown (melting) of hybridization. Base stacking, which occurs during hybridization, is accompanied by a reduction in UV absorption (hypochromicity). Consequently a reduction in UV absorption indicates a higher Tm. Following standard automated DNA synthesis protocols oligomeric compounds were prepared comprising one or more tricyclic nucleosides for Tm studies. After cleavage from the solid support, the oligomeric compounds were purified by ion exchange HPLC and analyzed by LCMS using standard procedures. The Tm of the modified 10mer oligomeric compounds were compared to an unmodified 10mer DNA oligonucleotide when duplexed to either DNA or RNA. Tm's were determined using a Cary 100 Bio spectrophotometer with the Cary Win UV thermal program was used to measure absorbance vs. temperature. For the Tm experiments, the oligomeric compounds were prepared at a concentration of […] in a buffer of 150 mM NaCl, 10 mM phosphate, 0.1 mM EDTA at pH 7. The concentration determined at 85° C. was […] after mixing of equal volumes of selected oligomeric compound and complementary RNA or DNA. The oligomeric compounds were hybridized with a complementary RNA or DNA by heating the duplex to 90° C. for 5 minutes and then cooling to room temperature. Tm measurements were taken using a spectrophotometer while the duplex solution was heated in a cuvette at a rate of 0.5° C./min starting at 15° C. until the temperature was 85° C. Tm values were determined using Vant Hoff calculations (A260 vs temperature curve) using non self-complementary sequences where the minimum absorbance related to the duplex and the maximum absorbance related to the non-duplex single strand are manually integrated into the program.

complementary DNA = experiment: Tm study of 10mer oligomeric compounds duplexed to DNA; type: binding; settings: 150 mM NaCl, 10 mM phosphate, 0.1 mM EDTA, pH 7; for ΔTm/mod (° C.) vs DNA: duplex with complementary DNA, compared to unmodified 10mer A01
Procedure: as §1

| Substance | Tm duplexed with RNA (complementary RNA) | ΔTm/mod (° C.) vs RNA (complementary RNA) | Tm duplexed with DNA (complementary DNA) | ΔTm/mod (° C.) vs DNA (complementary DNA) |
| --- | --- | --- | --- | --- |
| AACTGTCACG (unmodified DNA) [A01, unmodified 10mer DNA oligonucleotide, phosphodiester linkages, reference compound] | 48.3 °C | 0 °C | 47.9 °C | 0 °C |
| AACTGTbCACG [A02] |  | +0.4 °C |  | −0.9 °C |
| AACTGTdCACG (AACTGT_{d}CACG; as printed in the source, key not given here) [A03, 10mer phosphodiester DNA with one tricyclic nucleoside of subscript d, subscripts drawn in drawing 18] |  | +2.1 °C |  | +0.5 °C |
| AACTbGTCACG [A04] |  | +2.4 °C |  | +0.1 °C |
| AACTbGTbCACG [A06] |  | +0.5 °C |  | −0.7 °C |
| AACTcGTcCACG [A07] |  | +1.3 °C |  | −1.0 °C |
| AACTdGTCACG (AACT_{d}GTCACG; as printed in the source, key not given here) [A05, 10mer phosphodiester DNA with one tricyclic nucleoside of subscript d] |  | +2.4 °C |  | +0.4 °C |
| AACTdGTdCACG (AACT_{d}GT_{d}CACG; as printed in the source, key not given here) [A08, 10mer phosphodiester DNA with two tricyclic nucleosides of subscript d] |  | +1.2 °C |  | −0.6 °C |
| AACTeGTeCACG (AACT_{e}GT_{e}CACG; as printed in the source, key not given here) [A09, 10mer phosphodiester DNA with two tricyclic nucleosides of subscript e (tc^hdT)] |  | −10.2 °C |  | −13.0 °C |
| AACTfGTfCACG (AACT_{f}GT_{f}CACG; as printed in the source, key not given here) [A10, 10mer phosphodiester DNA with two tricyclic nucleosides of subscript f] |  | +1.3 °C |  | −2.0 °C |
| AaAaCaTaGaTaCaAaCaGa [A11, reference compound] |  | +2.1 °C |  | +1.3 °C |
| AaAaCaTaGaTdCaAaCaGa [A12] |  | −0.6 °C |  | −2.8 °C |
| AaAaCaTbGaTbCaAaCaGa [A14] |  | +2.0 °C |  | +1.1 °C |
| AaAaCaTcGaTcCaAaCaGa [A15] |  | +2.0 °C |  | +1.1 °C |
| AaAaCaTdGaTaCaAaCaGa [A13] |  | −2.6 °C |  | −3.8 °C |
| AaAaCaTdGaTdCaAaCaGa [A16] |  | +2.3 °C |  | +1.1 °C |
